Reference: patent US9273052B2, “Phthalazinone ketone derivative, preparation method thereof, and pharmaceutical use thereof” (Jiangsu Hansoh Pharmaceutical Co., Ltd., priority 2010, dated 2016)

Legend:
MDA-MB-436 cells = test: Cell proliferation inhibition assay (CCK8); type: cell-based; details: Homo sapiens, 72 hours
[1] = Pharmacokinetics assay in SD rats (LC/MS/MS plasma concentration); type: in vivo; details: oral gavage, 15 mg/kg
Procedure: The pharmacokinetic behavior of the compounds of the present invention was studied and evaluated in rats.
24 Healthy adult SD rats, male and female in half, were purchased from SINO-BRITSH SIPPR/BK LAB. ANIMAL LTD., CO, Certificate No.: SCXK (Shanghai) 2003-0002.
The intragastrical administration group: the right amount of tested compounds were weighed and dissolved in 0.5 mL of DMSO, diluted with physiological saline to 10 mL and prepared to 1.5 mg/mL.
The intravenous injection administration group: the right amount of tested compounds were weighed and added into […].
After an overnight fast, 24 healthy adult SD rats, male and female in half, were administered intragastrically at a dose of 15.0 mg/kg and an administration volume of 10 mL/kg.
(§1) The intragastrical administration group: blood samples (0.2 mL) were taken from orbital sinus at pre administration and at 0.25 hour, 0.5 hour, 1.0 hour, 1.5 hours, 2.0 hours, 3.0 hours, 4.0 hours, 6.0 hours, 7.0 hours, 9.0 hours, 12.0 hours and 24.0 hours post administration, stored in heparinized tubes and centrifuged for 20 minutes at 3,500 rpm to separate plasma. The plasma samples were stored at −20° C. The rats were fed at 2 hours after administration.
as §1, with “intravenous injection” for “intragastrical”, “2 minutes, 15 minutes,” for “0.25 hour,”, “hour,” for “hour, 1.5 hours,”, “8.0” for “7.0 hours, 9.0”, “C.” for “C. The rats were fed at 2 hours after administration.”
20 μL of rat blank plasmas taken at various time points after administration were added with 50 μL of internal standard solution and 140 μL of methanol and mixed for 3 minutes by a vortexer. The mixture was centrifuged for 10 minutes at 13,500 rpm. 20 μL of the supernatant was analyzed by LC-MS/MS. The main pharmacokinetic parameters were calculated by software DAS 2.0.

[2] = test system: human colon carcinoma SW620; test: Antitumor effect with temozolomide on SW620 transplanted tumors in nude mice; type: in vivo; details: colon carcinoma SW620 in BALB/cA-nude mice; 10 mg/kg oral gavage + TMZ 50 mg/kg oral gavage; day 52
Procedure: The therapeutic effect of the compounds of the present invention administered in combination with temozolomide (TMZ) on transplanted tumors of human colon carcinoma SW620 or human breast cancer cells MX-1 in nude mice was evaluated by using BALB/cA-nude mice as test animals.
BALB/cA-nude mice, SPF, 16-20 g, female( ), were purchased from SINO-BRITSH SIPPR/BK LAB. ANIMAL LTD., CO. Certificate No.: SCXK(Shanghai) 2008-0016.
4.2 The right rib of the nude mice was subcutaneously inoculated with colon carcinoma cells SW620. After tumors grew to 339±132 mm^3, mice were randomly divided into teams (d0).
The volume of tumors and the weight of the mice were measured and recorded for 2 to 3 times per week.
The volume of tumor (V) was calculated by the follow equation: V=½×a×b^2 wherein: a, b represents length and width respectively. The antitumor rate(%)=(C−T)/C(%) wherein: T, C represents the tumor volume of the experimental group (tested compounds) and blank control group at the end of the experiment respectively. 5. Dosage, Dosage Regimens and the Results

[3] = test system: human breast cancer cells MX-1; test: Antitumor effect with temozolomide on MX-1 transplanted tumors in nude mice; type: in vivo; details: breast cancer MX-1 in BALB/cA-nude mice, day 8
Procedure: The therapeutic effect of the compounds of the present invention administered in combination with temozolomide (TMZ) on transplanted tumors of human colon carcinoma SW620 or human breast cancer cells MX-1 in nude mice was evaluated by using BALB/cA-nude mice as test animals. BALB/cA-nude mice, SPF, 16-20 g, female( ), were purchased from SINO-BRITSH SIPPR/BK LAB. ANIMAL LTD., CO. Certificate No.: SCXK(Shanghai) 2008-0016. Nude mice were subcutaneously inoculated with human breast cancer cells MX-1. After tumors grew to 100 to 200 mm^3, mice were randomly divided into teams (d0). The volume of tumors and the weight of the mice were measured and recorded for 2 to 3 times per week. The volume of tumor (V) was calculated by the follow equation: V=½×a×b^2 wherein: a, b represents length and width respectively. The antitumor rate(%)=(C−T)/C(%) wherein: T, C represents the tumor volume of the experimental group (tested compounds) and blank control group at the end of the experiment respectively. 5. Dosage, Dosage Regimens and the Results

IC50 (MDA-MB-436 cells): 49 nM | AUC ([1]; both sexes, rat, plasma, read-out: Area Under Curve AUC): 12600 ± 12400 ng·h/mL | half-life ([1]; both sexes, rat, plasma, read-out: Half-Life t1/2 (converted)): 9.79 ± 4.82 h | MRT ([1]; both sexes, rat, plasma, read-out: Mean Residence Time MRT): 3.5 ± 1.46 h | Cmax ([1]; both sexes, rat, plasma, read-out: Plasma Conc. Cmax): 2340 ± 1650 ng/mL | Apparent Distribution Volume Vz/F [1]: 7.97 ± 5.38 kg⁻¹ | Clearance CL/F [1]: 3.45 ± 3.21 1/11/kg
SMILES: O=C(c1cc(Cc2n[nH]c(=O)c3ccccc23)ccc1F)N1CCn2nc(C(F)(F)F)nc2C1 [Example 19, 4-[[4-fluoro-3-[2-(trifluoromethyl)-6,8-dihydro-5H-[1,2,4]triazolo[1,5-a]pyrazine-7-carbonyl]phenyl]methyl]-2H-phthalazin-1-one]
antitumor rate (%) [2]: ++ (“++”: 60%~80%) | antitumor rate (%) ([3]; 1 mg/kg oral gavage + TMZ 50 mg/kg oral gavage): +++ (“+++”: 80%~100%) | antitumor rate (%) ([3]; 3 mg/kg oral gavage + TMZ 50 mg/kg oral gavage): +++ (“+++”: 80%~100%) | antitumor rate (%) ([3]; 10 mg/kg oral gavage + TMZ 50 mg/kg oral gavage): +++ (“+++”: 80%~100%)
